Source: patent US11697648B2, “Fused pyrimidine pyridinone compounds as JAK inhibitors” (THERAVANCE BIOPHARMA R&D IP, LLC, priority 2019, dated 2023)

What was measured:
[1] = molecular target: JAK1 (Homo sapiens (Human), UniProt P23458); experiment: Biochemical JAK1 kinase assay (LanthaScreen)
Procedure, shortened: (§1)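 GST-JAK + GFP-STAT1 peptide, HEPES pH 7.5/MgCl2/EGTA/Brij-35 buffer; cpd preincubation 1 h RT; ATP start, 1 h RT; stop with 10 mM EDTA + 2 nM Tb-anti-pSTAT1; TR-FRET 520/495. 4-parameter IC50 → pKi (Cheng-Prusoff).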

[2] = molecular target: JAK2 (Homo sapiens (Human), UniProt O60674); experiment: Biochemical JAK2 kinase assay (LanthaScreen)
Procedure, shortened: as §1

[3] = molecular target: JAK3 (Homo sapiens (Human), UniProt P52333); experiment: Biochemical JAK3 kinase assay (LanthaScreen); conditions: for JAK3 (pKi)-JAK1 (pKi): selectivity JAK3 over JAK1, difference of pKi
Procedure, shortened: as §1

[4] = molecular target: Tyk2 (Homo sapiens (Human), UniProt P29597); experiment: Biochemical Tyk2 kinase assay (LanthaScreen)
Procedure, shortened: as §1

[5] = test system: IL-2 stimulated STAT5 phosphorylation in Tall-1 human T cell line (JAK3); experiment: Cellular JAK3 potency assay: inhibition of IL-2 stimulated pSTAT5 in Tall-1 T cells; type: cell-based; conditions: IL-2 stimulated pSTAT5, Tall-1 T cells
Procedure, shortened: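 AlphaLISA SureFire Ultra measures STAT5 Tyr694/699 phosphorylation in lysed Tall-1 human T cells. Cells were exposed to compound for 1 h at 37 °C before a 30 min IL-2 challenge (300 ng/ml final). Values are pIC50 means with standard deviation from signal-versus-concentration curves.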

[6] = test system: Caco-2 cell monolayers; experiment: Caco-2 permeation assay; type: in vitro ADME; conditions: 5 μM, A-B direction, with Verapamil (25 μM)
Procedure, shortened: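 Passive A-to-B permeability with P-gp inhibited by verapamil (25 μM); compound at 5 μM, n=2. Both compartments sampled at t0 and t120 and quantified by LC-MS/MS, giving apparent permeability in cm/sec from flux, area and concentration.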

Chain of JAK3 (P52333 whole entry): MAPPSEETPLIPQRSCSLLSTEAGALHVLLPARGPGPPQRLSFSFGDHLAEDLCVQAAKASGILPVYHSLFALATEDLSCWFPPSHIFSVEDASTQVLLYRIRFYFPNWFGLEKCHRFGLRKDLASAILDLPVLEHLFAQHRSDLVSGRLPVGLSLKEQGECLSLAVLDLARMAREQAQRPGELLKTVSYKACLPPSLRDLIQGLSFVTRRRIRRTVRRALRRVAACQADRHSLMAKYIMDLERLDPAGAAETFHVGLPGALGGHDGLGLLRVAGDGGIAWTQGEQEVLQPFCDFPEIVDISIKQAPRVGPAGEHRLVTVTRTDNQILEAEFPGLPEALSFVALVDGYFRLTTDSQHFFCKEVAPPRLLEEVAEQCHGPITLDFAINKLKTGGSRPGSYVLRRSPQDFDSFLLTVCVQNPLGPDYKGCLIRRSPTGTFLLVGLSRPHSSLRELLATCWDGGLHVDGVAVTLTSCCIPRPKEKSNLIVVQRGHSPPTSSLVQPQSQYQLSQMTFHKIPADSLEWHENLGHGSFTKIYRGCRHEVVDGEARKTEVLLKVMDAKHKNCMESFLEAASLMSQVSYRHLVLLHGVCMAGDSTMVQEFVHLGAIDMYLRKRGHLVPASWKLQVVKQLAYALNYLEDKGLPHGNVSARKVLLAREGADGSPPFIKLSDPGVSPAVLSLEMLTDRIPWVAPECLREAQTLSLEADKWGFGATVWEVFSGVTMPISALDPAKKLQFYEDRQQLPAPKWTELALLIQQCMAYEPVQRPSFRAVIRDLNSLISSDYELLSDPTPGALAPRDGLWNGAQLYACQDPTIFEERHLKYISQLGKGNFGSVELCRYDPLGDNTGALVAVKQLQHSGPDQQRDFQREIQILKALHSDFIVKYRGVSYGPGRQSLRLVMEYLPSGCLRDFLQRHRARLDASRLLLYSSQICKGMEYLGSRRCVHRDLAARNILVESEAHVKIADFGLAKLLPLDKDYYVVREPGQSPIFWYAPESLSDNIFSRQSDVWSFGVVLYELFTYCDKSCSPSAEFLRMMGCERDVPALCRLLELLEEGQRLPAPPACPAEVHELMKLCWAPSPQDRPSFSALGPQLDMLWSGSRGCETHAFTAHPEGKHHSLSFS
Chain of Tyk2 (P29597 whole entry): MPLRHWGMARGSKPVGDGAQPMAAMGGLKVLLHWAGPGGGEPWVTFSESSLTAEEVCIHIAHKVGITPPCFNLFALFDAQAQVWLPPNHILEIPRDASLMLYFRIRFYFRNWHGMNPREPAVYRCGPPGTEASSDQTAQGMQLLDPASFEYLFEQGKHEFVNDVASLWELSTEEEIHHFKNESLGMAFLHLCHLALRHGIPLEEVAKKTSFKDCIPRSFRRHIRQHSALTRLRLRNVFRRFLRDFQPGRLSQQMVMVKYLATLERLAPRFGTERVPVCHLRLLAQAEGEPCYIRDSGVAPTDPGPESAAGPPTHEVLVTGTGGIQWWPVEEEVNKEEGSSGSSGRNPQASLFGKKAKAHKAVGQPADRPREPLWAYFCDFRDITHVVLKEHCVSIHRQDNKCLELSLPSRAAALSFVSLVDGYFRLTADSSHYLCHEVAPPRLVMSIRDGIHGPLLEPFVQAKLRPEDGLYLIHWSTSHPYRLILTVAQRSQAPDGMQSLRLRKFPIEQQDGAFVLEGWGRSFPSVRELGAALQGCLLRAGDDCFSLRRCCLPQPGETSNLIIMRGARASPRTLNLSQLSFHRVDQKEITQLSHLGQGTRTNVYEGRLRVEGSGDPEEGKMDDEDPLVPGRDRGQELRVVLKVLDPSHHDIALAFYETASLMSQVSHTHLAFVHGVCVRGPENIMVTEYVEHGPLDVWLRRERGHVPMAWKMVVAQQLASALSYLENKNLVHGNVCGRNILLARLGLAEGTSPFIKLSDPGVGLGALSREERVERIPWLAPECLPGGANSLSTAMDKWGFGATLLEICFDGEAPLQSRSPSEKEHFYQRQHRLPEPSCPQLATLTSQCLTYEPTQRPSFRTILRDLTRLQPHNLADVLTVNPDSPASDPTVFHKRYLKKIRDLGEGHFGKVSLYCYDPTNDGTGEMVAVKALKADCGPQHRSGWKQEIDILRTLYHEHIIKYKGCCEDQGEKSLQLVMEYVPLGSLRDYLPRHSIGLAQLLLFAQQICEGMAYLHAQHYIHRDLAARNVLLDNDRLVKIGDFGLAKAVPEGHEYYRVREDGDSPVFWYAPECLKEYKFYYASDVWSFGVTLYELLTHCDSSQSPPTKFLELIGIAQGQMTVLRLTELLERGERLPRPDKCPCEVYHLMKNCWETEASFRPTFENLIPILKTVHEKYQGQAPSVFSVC
Chain of JAK2 (O60674 whole entry): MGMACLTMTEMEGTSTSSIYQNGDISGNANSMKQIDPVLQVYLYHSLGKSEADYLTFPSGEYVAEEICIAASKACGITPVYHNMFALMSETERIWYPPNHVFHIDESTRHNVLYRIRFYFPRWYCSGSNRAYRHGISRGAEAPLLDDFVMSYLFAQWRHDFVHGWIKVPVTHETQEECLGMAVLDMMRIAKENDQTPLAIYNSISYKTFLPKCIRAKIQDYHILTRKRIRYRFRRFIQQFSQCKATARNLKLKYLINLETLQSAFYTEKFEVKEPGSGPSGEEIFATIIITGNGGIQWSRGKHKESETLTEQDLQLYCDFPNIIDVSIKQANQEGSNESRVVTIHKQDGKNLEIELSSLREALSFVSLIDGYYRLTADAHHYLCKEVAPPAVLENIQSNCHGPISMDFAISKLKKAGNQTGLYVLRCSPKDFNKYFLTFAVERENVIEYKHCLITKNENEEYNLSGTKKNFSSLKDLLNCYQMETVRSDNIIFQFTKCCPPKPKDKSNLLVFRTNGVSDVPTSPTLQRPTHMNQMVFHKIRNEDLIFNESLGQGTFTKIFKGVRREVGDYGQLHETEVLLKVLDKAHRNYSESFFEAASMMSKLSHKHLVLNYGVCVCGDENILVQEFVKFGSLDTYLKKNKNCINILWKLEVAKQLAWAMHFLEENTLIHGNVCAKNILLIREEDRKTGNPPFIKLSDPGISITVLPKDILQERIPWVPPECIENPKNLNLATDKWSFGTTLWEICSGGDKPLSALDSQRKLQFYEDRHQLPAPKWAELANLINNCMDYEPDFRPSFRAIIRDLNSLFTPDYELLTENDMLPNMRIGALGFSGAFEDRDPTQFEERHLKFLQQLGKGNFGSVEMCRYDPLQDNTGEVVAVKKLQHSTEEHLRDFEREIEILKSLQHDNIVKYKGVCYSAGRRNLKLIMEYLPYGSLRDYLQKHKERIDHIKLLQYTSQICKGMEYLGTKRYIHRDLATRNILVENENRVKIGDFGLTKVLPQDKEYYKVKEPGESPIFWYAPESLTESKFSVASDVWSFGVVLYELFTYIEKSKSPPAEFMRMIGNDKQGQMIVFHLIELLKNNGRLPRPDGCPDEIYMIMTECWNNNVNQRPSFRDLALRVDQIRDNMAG
Chain of JAK1 (P23458 whole entry): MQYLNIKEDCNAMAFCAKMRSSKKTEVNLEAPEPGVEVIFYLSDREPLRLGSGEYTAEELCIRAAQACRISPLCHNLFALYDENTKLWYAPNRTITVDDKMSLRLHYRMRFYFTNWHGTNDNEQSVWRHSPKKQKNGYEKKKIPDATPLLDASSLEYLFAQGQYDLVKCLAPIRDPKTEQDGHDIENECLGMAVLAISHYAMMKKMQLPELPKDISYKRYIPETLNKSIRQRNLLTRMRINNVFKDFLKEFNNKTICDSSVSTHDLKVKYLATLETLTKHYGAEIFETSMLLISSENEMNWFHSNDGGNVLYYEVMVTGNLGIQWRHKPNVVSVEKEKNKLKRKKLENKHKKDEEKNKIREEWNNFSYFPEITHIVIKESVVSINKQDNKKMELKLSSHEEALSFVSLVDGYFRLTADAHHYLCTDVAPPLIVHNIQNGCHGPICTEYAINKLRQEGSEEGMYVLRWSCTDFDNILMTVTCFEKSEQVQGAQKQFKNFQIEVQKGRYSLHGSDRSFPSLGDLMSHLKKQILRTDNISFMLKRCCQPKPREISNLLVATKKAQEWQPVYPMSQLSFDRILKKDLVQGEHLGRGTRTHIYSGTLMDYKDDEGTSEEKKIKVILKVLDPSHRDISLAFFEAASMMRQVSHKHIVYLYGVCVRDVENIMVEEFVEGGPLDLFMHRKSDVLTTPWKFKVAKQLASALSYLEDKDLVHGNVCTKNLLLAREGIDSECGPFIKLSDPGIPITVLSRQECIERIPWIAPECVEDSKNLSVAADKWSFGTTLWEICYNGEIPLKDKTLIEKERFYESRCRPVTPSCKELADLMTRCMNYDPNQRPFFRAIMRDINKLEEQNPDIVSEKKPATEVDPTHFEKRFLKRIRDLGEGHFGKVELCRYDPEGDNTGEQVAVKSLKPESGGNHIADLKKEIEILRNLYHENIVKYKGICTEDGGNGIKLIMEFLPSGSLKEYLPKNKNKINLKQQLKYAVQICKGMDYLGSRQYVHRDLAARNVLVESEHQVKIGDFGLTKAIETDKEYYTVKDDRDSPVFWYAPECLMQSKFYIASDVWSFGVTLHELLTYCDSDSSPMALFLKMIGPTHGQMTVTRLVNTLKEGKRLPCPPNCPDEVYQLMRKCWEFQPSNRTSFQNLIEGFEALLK

Compound	JAK 1 (pKi) [1]	JAK 2 (pKi) [2]	JAK 3 (pKi) [3]	JAK3 (pKi)-JAK1 (pKi) [3]	Tyk 2 (pKi) [4]	Tall-1 (pIC50) [5]	Caco Kp [6]
C=CC(=O)N1CCN(CCn2c(=O)ccc3cnc(Nc4ccc(N5CCN(C(C)=O)CC5)cc4)nc32)[C@@H](CC)C1 [Example 185]	E (E represents a pKi value of 7 or below (Ki of 100 nM or above))	E (E represents a pKi value of 7 or below (Ki of 100 nM or above))	A (A represents a pKi value≥10 (Ki≤0.1 nM))	A (A represents a value of 3 or above)	E (E represents a pKi value of 7 or below (Ki of 100 nM or above))	B (B represents a pC50 value between 6.7 (included) and 7.5 (IC50 between 200 nM and 32 nM))	B (B represents a value between 5×10^−6 and 10×10^−6 cm/sec)
C=CC(=O)N1CCN(CCn2c(=O)ccc3cnc(Nc4ccc(N5CCN(S(C)(=O)=O)CC5)cc4)nc32)[C@@H](CC)C1 [Example 189]	E (E represents a pKi value of 7 or below (Ki of 100 nM or above))	E (E represents a pKi value of 7 or below (Ki of 100 nM or above))	A (A represents a pKi value≥10 (Ki≤0.1 nM))	A (A represents a value of 3 or above)	E (E represents a pKi value of 7 or below (Ki of 100 nM or above))	B (B represents a pC50 value between 6.7 (included) and 7.5 (IC50 between 200 nM and 32 nM))	B (B represents a value between 5×10^−6 and 10×10^−6 cm/sec)
C=CC(=O)N1CCN(CCn2c(=O)ccc3cnc(Nc4ccc(N5CCN(C(=O)OC)CC5)cc4)nc32)[C@@H](CC)C1 [Example 190]	E (E represents a pKi value of 7 or below (Ki of 100 nM or above))	E (E represents a pKi value of 7 or below (Ki of 100 nM or above))	A (A represents a pKi value≥10 (Ki≤0.1 nM))	A (A represents a value of 3 or above)	E (E represents a pKi value of 7 or below (Ki of 100 nM or above))	B (B represents a pC50 value between 6.7 (included) and 7.5 (IC50 between 200 nM and 32 nM))	C (C represents a value between 10×10^−6 and 30×10^−6 cm/sec)
C=CC(=O)N1CC(CCn2c(=O)ccc3cnc(Nc4cnn(C5CCN(C(=O)CSC)CC5)c4)nc32)C1 [Example 210]	E (E represents a pKi value of 7 or below (Ki of 100 nM or above))	E (E represents a pKi value of 7 or below (Ki of 100 nM or above))	A (A represents a pKi value≥10 (Ki≤0.1 nM))	A (A represents a value of 3 or above)	E (E represents a pKi value of 7 or below (Ki of 100 nM or above))	B (B represents a pC50 value between 6.7 (included) and 7.5 (IC50 between 200 nM and 32 nM))	A (A represents a value below 5×10^−6 cm/sec)
C=CC(=O)N1CC(CCn2c(=O)ccc3cnc(Nc4cccc(CN(C)C)c4)nc32)C1 [Example 90]	E (E represents a pKi value of 7 or below (Ki of 100 nM or above))	E (E represents a pKi value of 7 or below (Ki of 100 nM or above))	B (B represents pKi value between 9 and 10 (Ki between 1 nM and 0.1 nM))	A (A represents a value of 3 or above)	E (E represents a pKi value of 7 or below (Ki of 100 nM or above))	B (B represents a pC50 value between 6.7 (included) and 7.5 (IC50 between 200 nM and 32 nM))	A (A represents a value below 5×10^−6 cm/sec)
C=CC(=O)N1CCN(CCn2c(=O)ccc3cnc(Nc4ccc(CN5CCOCC5)cc4)nc32)CC1 [Example 80]	E (E represents a pKi value of 7 or below (Ki of 100 nM or above))	E (E represents a pKi value of 7 or below (Ki of 100 nM or above))	B (B represents pKi value between 9 and 10 (Ki between 1 nM and 0.1 nM))	A (A represents a value of 3 or above)	E (E represents a pKi value of 7 or below (Ki of 100 nM or above))	B (B represents a pC50 value between 6.7 (included) and 7.5 (IC50 between 200 nM and 32 nM))	C (C represents a value between 10×10^−6 and 30×10^−6 cm/sec)
C=CC(=O)N1CC(CCn2c(=O)ccc3cnc(Nc4ccc(N5CCN(C(=O)C(C)(C)O)CC5)cc4)nc32)C1 [Example 138]	E (E represents a pKi value of 7 or below (Ki of 100 nM or above))	D (D represents a pKi value between 7 and 8 (Ki between 100 nM and 10 nM))	A (A represents a pKi value≥10 (Ki≤0.1 nM))	A (A represents a value of 3 or above)	E (E represents a pKi value of 7 or below (Ki of 100 nM or above))	B (B represents a pC50 value between 6.7 (included) and 7.5 (IC50 between 200 nM and 32 nM))	A (A represents a value below 5×10^−6 cm/sec)
C=CC(=O)N1CC(CCn2c(=O)ccc3cnc(Nc4ccc5c(c4)oc(=O)n5C)nc32)C1 [Example 60]	E (E represents a pKi value of 7 or below (Ki of 100 nM or above))	E (E represents a pKi value of 7 or below (Ki of 100 nM or above))	B (B represents pKi value between 9 and 10 (Ki between 1 nM and 0.1 nM))	A (A represents a value of 3 or above)	E (E represents a pKi value of 7 or below (Ki of 100 nM or above))	B (B represents a pC50 value between 6.7 (included) and 7.5 (IC50 between 200 nM and 32 nM))	B (B represents a value between 5×10^−6 and 10×10^−6 cm/sec)
C=CC(=O)N1CC(CCn2c(=O)ccc3cnc(Nc4ccc(N5CCN(C(=O)[C@@H](C)O)CC5)cc4)nc32)C1 [Example 105]	E (E represents a pKi value of 7 or below (Ki of 100 nM or above))	E (E represents a pKi value of 7 or below (Ki of 100 nM or above))	A (A represents a pKi value≥10 (Ki≤0.1 nM))	A (A represents a value of 3 or above)	E (E represents a pKi value of 7 or below (Ki of 100 nM or above))	B (B represents a pC50 value between 6.7 (included) and 7.5 (IC50 between 200 nM and 32 nM))	A (A represents a value below 5×10^−6 cm/sec)
C=CC(=O)N1CCN(CCn2c(=O)ccc3cnc(Nc4cnn(CC(F)F)c4)nc32)[C@@H](CC)C1 [Example 209]	E (E represents a pKi value of 7 or below (Ki of 100 nM or above))	E (E represents a pKi value of 7 or below (Ki of 100 nM or above))	B (B represents pKi value between 9 and 10 (Ki between 1 nM and 0.1 nM))	A (A represents a value of 3 or above)	E (E represents a pKi value of 7 or below (Ki of 100 nM or above))	B (B represents a pC50 value between 6.7 (included) and 7.5 (IC50 between 200 nM and 32 nM))	A (A represents a value below 5×10^−6 cm/sec)
